Data set [1] has as its target T1, Cytochrome P450 1A2 (Homo sapiens, UniProt P05177).
T1 sequence (P05177 whole entry): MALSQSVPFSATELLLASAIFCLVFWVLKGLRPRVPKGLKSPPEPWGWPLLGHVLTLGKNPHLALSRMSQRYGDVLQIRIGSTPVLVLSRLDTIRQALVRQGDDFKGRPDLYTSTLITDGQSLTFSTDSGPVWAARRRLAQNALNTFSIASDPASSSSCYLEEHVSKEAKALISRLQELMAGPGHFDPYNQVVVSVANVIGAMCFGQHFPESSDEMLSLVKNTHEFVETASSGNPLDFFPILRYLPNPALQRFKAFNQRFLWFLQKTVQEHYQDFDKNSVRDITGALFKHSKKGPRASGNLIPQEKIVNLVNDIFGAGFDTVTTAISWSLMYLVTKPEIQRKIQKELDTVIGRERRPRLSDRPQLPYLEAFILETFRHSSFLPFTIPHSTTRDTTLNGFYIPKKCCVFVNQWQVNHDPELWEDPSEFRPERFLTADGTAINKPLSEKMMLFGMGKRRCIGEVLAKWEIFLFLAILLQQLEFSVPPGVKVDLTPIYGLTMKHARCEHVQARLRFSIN
Briefly: Inhibition of human recombinant CYP1A2 assessed as fluorescence of resorufin. In kind it is ADME.

Data set [2] deals with T2, Cytochrome P450 1B1 (Homo sapiens, UniProt Q16678).
T2 sequence (Q16678 whole entry): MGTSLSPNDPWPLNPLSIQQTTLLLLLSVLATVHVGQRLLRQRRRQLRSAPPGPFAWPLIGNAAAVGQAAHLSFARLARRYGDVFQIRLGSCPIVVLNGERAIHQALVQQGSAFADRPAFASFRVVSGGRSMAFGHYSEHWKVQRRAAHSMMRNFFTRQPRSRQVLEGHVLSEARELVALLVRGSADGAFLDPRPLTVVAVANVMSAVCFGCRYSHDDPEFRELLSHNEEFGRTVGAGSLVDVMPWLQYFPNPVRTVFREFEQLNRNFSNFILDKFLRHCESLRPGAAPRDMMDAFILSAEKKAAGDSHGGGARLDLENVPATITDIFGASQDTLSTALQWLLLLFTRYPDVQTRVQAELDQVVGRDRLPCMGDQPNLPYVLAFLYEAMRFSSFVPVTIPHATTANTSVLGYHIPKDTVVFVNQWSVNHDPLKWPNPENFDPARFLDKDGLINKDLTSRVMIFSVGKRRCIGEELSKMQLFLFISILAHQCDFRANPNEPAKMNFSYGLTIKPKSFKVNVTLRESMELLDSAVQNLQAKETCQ
Nature of the data set: Inhibition of human recombinant CYP1B1 assessed as fluorescence of resorufin.

A short description of data set [3]: Metabolic stability in human liver microsomes assessed as relative remaining concentration measured after 60 mins by LC-UV analysis. Type of data set: ADME, Microsome. The following applies: read-out: INH.
The nature of data set [4]: Metabolic stability in human liver microsomes assessed as half life measured after 60 mins by LC-UV analysis. Type of data set: ADME, Microsome.
The target of data set [5] is T3, Aryl hydrocarbon receptor (Homo sapiens, UniProt P35869).
T3 sequence (P35869 whole entry): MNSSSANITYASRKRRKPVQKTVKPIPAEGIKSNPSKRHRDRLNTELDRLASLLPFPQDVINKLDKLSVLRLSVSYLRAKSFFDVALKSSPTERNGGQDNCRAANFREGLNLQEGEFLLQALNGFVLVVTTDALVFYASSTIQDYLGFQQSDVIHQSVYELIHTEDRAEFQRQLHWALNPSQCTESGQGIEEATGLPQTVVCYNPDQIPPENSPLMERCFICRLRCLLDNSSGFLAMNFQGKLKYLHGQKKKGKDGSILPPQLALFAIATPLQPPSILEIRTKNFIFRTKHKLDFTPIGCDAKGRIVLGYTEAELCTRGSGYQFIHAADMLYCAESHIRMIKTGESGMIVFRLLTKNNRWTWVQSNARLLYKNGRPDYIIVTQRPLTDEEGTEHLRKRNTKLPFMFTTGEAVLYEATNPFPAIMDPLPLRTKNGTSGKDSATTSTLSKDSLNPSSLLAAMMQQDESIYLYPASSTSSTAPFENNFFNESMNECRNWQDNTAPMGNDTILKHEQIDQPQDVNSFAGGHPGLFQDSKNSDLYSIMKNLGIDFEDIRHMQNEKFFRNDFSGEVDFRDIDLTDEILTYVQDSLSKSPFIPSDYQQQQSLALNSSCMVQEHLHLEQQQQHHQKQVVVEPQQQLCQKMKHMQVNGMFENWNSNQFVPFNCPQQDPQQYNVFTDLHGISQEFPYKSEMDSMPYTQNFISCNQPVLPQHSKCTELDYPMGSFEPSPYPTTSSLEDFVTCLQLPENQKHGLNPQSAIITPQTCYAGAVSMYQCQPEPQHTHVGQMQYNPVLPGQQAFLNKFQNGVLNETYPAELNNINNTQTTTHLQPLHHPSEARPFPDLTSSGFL
Briefly: Agonist activity at aryl hydrocarbon receptor (unknown origin) expressed in HEK293T cells assessed as luciferase activity at 10 uM measured after 24 hrs. Type of data set: toxicity, cell-based.

Data set [6] concerns the target T3, Aryl hydrocarbon receptor. Nature of the data set: Antagonist activity at aryl hydrocarbon receptor (unknown origin) expressed in HEK293T cells assessed as luciferase activity at 10 uM measured after 24 hrs. In kind it is toxicity, cell-based.
Data set [7] has as its target T4, Cytochrome P450 1A1 (Homo sapiens, UniProt P04798).
T4 sequence (P04798 whole entry): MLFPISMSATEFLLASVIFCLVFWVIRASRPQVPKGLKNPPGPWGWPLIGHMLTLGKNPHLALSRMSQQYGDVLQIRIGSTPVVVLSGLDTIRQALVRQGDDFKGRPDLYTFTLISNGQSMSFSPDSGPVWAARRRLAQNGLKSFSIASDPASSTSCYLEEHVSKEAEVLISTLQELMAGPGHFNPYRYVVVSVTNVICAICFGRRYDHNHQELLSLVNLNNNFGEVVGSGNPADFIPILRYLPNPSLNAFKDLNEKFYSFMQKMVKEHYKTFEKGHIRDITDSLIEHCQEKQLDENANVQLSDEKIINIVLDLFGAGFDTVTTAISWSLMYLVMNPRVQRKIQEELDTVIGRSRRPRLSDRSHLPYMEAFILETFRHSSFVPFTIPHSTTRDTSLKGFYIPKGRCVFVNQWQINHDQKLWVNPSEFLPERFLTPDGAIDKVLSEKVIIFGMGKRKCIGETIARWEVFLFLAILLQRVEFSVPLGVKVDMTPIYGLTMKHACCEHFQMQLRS
Nature of the data set: Inhibition of human recombinant CYP1A1 assessed as fluorescence of resorufin. In kind it is ADME.

The target in data set [8] is T2, Cytochrome P450 1B1. Briefly: Inhibition of human CYP1B1 overexpressed in CHO cells assessed as intracellular protein inhibition measured at 10 to 100 uM after 3 hrs. Type of data set: cell-based. The following applies: dose 10-100 µM.

The structures appear in SMILES notation.

As for `CCOc1ccc(/C=C/C(=O)c2ccc(C(F)(F)F)cc2)cc1`, in data set [1], the 50% inhibitory concentration (IC50) was above 100 µM.
Turning to `O=C(/C=C/c1ccccc1)c1ccccc1` [CHALCONE], the IC50 in data set [2] came to 305 nM.
Same read-out and setting: in the case of `O=C(/C=C/c1ccccc1)c1ccc(Br)cc1` it was 36 nM; in that of `O=C(/C=C/c1ccccc1)c1ccc([N+](=O)[O-])cc1`, 280 nM.
Turning to `CCCOc1ccc(/C=C/C(=O)c2ccc(C(F)(F)F)cc2)cc1`, the IC50 in data set [1] is above 100 µM.
With `O=C(/C=C/c1ccc(F)cc1F)c1ccc(C(F)(F)F)cc1`, in data set [1], the 50% inhibitory concentration (IC50) was above 100 µM.
Same read-out and setting: in the case of `COc1cc(OC)c(/C=C/C(=O)c2ccc(C(F)(F)F)cc2)cc1Br` it was above 100 µM.
As for `O=C(/C=C/c1ccccc1)c1ccc(O)cc1` [4'-HYDROXYCHALCONE], the IC50 in data set [2] worked out at 1130 nM.
For `COc1cc(OC(C)=O)ccc1/C=C/C(=O)c1ccc(C(F)(F)F)cc1`, the IC50 in data set [1] is above 100 µM.
Regarding `C[C@]12CC[C@H]3[C@@H](CCC4=CC(=O)CC[C@@]43C)[C@@H]1CC[C@@H]2O` [TESTOSTERONE], the remaining at 1 h in data set [3] came out at 43.7%. Further, the half-life in data set [4] stood at 58.2 min.
Take `COc1cc(O)c(Cl)cc1/C=C/C(=O)c1ccc(C(F)(F)F)cc1`: in data set [5], the result was Active. Further, the concentration for half-maximal inhibition (IC50) in data set [1] is above 100 µM.
For `Cc1ccc(/C=C/C(=O)c2ccc(C(F)(F)F)cc2)cc1`, in data set [1], the IC50 was above 100 µM.
Take `COc1ccc(/C=C/C(=O)c2ccc(C(F)(F)F)cc2)cc1`: the IC50 in data set [1] is above 100 µM.
`COc1cc(O)c(Br)cc1/C=C/C(=O)c1ccc(C(F)(F)F)cc1`: the half-maximal inhibitory concentration (IC50) in data set [1] was above 100 µM.
With `CN(C)c1ccc(C(=O)/C=C/c2ccccc2)cc1`, the IC50 in data set [2] came to 110 nM.
On the same count and under the same terms, as for `Cc1ccc(C(=O)/C=C/c2ccccc2)cc1`, the figure is 31 nM.
Turning to `COc1ccc(/C=C/C(=O)c2ccc(C(F)(F)F)cc2)c(OC)c1`, the remaining at 1 h in data set [3] was found to be 11.8%. For the same molecule, in data set [4], the half-life came out at 28.9 min. The outcome in data set [6] was Active. Also, the IC50 in data set [1] is above 100 µM; in data set [2], 4.72 nM; in data set [7], 1690 nM.
Take `O=C(/C=C/c1ccccc1)c1ccc(Cl)cc1`: in data set [2], the 50% inhibitory concentration (IC50) amounted to 43 nM.
As to `Nc1ccc(C(=O)/C=C/c2ccccc2)cc1`, the IC50 in data set [2] is 1060 nM.
`CCOc1ccc(/C=C/C(=O)c2ccc(C(F)(F)F)cc2)c(OC)c1`: the outcome in data set [5] was Active. For the same molecule, the half-inhibitory concentration (IC50) in data set [1] was above 100 µM.
On to `O=C(/C=C/c1ccccc1)c1ccc(C(F)(F)F)cc1`, for which the IC50 is above 100 µM in data set [1], 26.2 nM in data set [2] and 274 nM in data set [7].
In the case of `O=c1cc(-c2ccccc2)oc2c1ccc1ccccc12` [ALPHA-NAPHTHOFLAVONE], the “inhibition (INH)” value in data set [8] is on record as “Dose-Dependent Effect”. In addition, the IC50 in data set [7] was 7.41 nM.
`COc1cc(OC(=O)c2cccs2)ccc1/C=C/C(=O)c1ccc(C(F)(F)F)cc1`: the half-inhibitory concentration (IC50) in data set [1] is above 100 µM.
As for `COc1cc(O)ccc1/C=C/C(=O)c1ccc(C(F)(F)F)cc1`, the remaining at 1 h in data set [3] was found to be 21%. For the same molecule, the half-life in data set [4] came out at 35.6 min. The result in data set [5] was Active. The IC50 in data set [1] is above 100 µM.
On to `Cc1ccc(/C=C/C(=O)c2ccc(C(F)(F)F)cc2)c(C)c1`, for which the IC50 in data set [1] was above 100 µM.
Turning to `CCCOc1ccc(/C=C/C(=O)c2ccc(C(F)(F)F)cc2)c(OC)c1`, in data set [1], the IC50 was above 100 µM.
In the case of `O=C(/C=C/c1ccc(F)cc1)c1ccc(C(F)(F)F)cc1`, the IC50 in data set [1] was above 100 µM.
On to `COc1ccc(C(=O)/C=C/c2ccccc2)cc1` [4'-METHOXYCHALCONE], for which, in data set [2], the half-inhibitory concentration (IC50) stood at 180 nM.
In the case of `O=C(/C=C/c1ccc(O)cc1)c1ccc(C(F)(F)F)cc1`, in data set [1], the IC50 was above 100 µM.
